Reference: patent publication US20220106547A1, “COMPOSITIONS AND METHODS OF USING PARTIAL GEL LAYERS IN A MICROFLUIDIC DEVICE” (Emulate, Inc., priority 2019, published 2022)

Assays:
[1] = system: human neutrophils; experiment: Neutrophil recruitment/adhesion in HRV infected Airway Chips; format: cell-based
From the text: In one embodiment, the present invention contemplates a method for reducing neutrophil adhesion using an IL-13 inhibitor. In one embodiment, the IL-13 inhibitor is a CXCR2 antagonist. In one embodiment, the IL-13 inhibitor is MK-7123. In one embodiment, the neutrophil adhesion is reduced by approximately seventy-five (75) percent (%). In one embodiment, the IL-13 recruits neutrophils by approximately two-fold.
This response was accompanied by a reduction in neutrophil velocity. FIG. 95A, 95B. Also observed was a significant twofold increase in neutrophil recruited between HRV infected chips and infected chips in presence of IL-13 (953 vs 1999; p<0.001). FIG. 95A. […] FIG. 95C.

[2] = system: primary human hepatocytes; experiment: Oxidative stress (MitoSox ROS events) in Liver-Chip hepatocytes; format: cell-based; details: 48 h exposure
From the text: Having shown that at least one embodiment of a Liver-Chip responds to alcohol, we explored the possibility of modeling the progression of ALD, as per the two- or one-hit and second-hit hypothesis, such that simple steatosis induced by alcohol requires a second hit (insult) for progression of ALD to ASH ref^69. Ethanol consumption in humans compromises the intestinal barrier function resulting in increased permeability to intestinal endotoxins, e.g. bacterial lipopolysaccharide (LPS), from the gut to the liver via the portal vein ref^18. Such a permeabalized leaky barrier is considered one of the “second hits” in the progression of ALD to inflammation (ASH) ref^70. Therefore, we tested whether exposure to ethanol and LPS together would worsen the Liver-Chip pathology.
Clinical data have shown the potential of the steatotic liver to repair the steatotic injury following timely abstinence from alcohol or with diet modifications ref^19. Thus, we assessed the responses of the “alcoholic” Liver-Chip to withdrawal from ethanol or ethanol+LPS. Treatment of the Liver-Chip for 48 h with ethanol or ethanol+LPS as above, was followed by a 5 day-long treatment-free “recovery” period. […]
Live cell staining. […] The stained chips were imaged using either an Olympus fluorescence microscope (IX83) or Zeiss confocal microscope (LSM880), and were de-blurred with Olympus cellSens software. […]

[3] = system: bile canaliculi network of primary human hepatocytes; experiment: Bile canaliculi (BC) network integrity, MRP-2 staining, Liver-Chip; format: cell-based; details: 0.08% ethanol with or without LPS, 48 h
From the text: A Tri-culture configuration includes primary hepatocytes cultured in the upper channel and primary liver sinusoidal endothelial cells (LSECs) cultured on the opposite side of the membrane, i.e. in the lower channel, along with Kupffer cells. As this design recapitulates elements of the hepatic sinusoid microenvironment ref^17, we were interested in recreating the bile canaliculi (BC) network that is established between neighboring hepatocytes. […] The latter together with the lack of a reproducible, quantitative manner to assess the integrity of the BC network have precluded the use of this clinical endpoint in preclinical studies. […] Based on these findings, we assessed the impact of various ECM scaffold compositions and patterning methods on BC integrity by using quantitative metrics to describe the MRP-2 stained BC network topology (FIG. 82A-E: Table 8. […]
To assess the effect of each ECM protocol on BC network formation, we quantified the MRP-2 stained BC network topology (see method sections on IF staining and Image analysis for details). […]
For measuring bile canaliculi network properties, MRP-2 stained chips were imaged at 40× using a confocal point-scanning microscope (Zeiss LSM880, Airyscan). […] In each field of view, a z-stack was recorded and combined using maximal intensity projection in order to fully capture the bile canaliculi network. […]

[4] = system: primary human hepatocytes; details: 48 hrs
From the text: To this purpose we used fluorometric assays for biochemical markers of liver function, including albumin, cholesterol, glucose, and glycogen (FIG. 77A-B).
Liver-Chip culture. Liver-Chip culture was established according to our previously published protocol^74. […] Extracellular matrix sandwiching and composition in the Liver-Chip was optimized to support BC integrity (FIG. 81A-B and method sections below). On the other side of the membrane (the lower chamber of the chip) human primary LSECs (3 million cells/mL) and KCs (0.5 million cells/mL) were seeded to mimic the hepatic sinusoid architecture (FIG. 76A). The two cell compartments were perfused independently, and flow rates were optimized to enable optimal survival and maturation of the different cell types ref^74. In the Quad Liver-Chip experiments, primary human hepatic stellate cells (50,000 cells/mL) were mixed within the collagen coating (FibriCol at 0.5 mg/ml concentration) and add to activated chips and let incubate overnight before hepatocytes seeding on the top of the collagen and HSC mix. The seeded hepatocytes were overlaid with ECM as described in FIG. 81A-B and below, and maintained in William's E Medium (WEM) containing Glutamax (Gibco), ITS+ (Corning), dexamethasone (Sigma-Aldrich), ascorbic acid (Sigma-Aldrich), fetal bovine serum (Sigma-Aldrich), and penicillin/streptomycin (Sigma-Aldrich), and incubated at 37° C., 5% CO2. The vascular channel of the Liver-Chip was maintained with human endothelial media (Emulate, Inc.). Two days after seeding, the Liver-Chips were connected to the Human Emulation System™ (Emulate, Inc.) and both chip channels were perfused at 30 μL/h to provide a continuous supply of fresh medium for the duration of the experiments. At day 5 in culture, the basal medium was modified to DMEM low glucose (1 g/L) supplemented with non-essential amino acids solution (NEAA, 1:200 dilution), glutaMAX (Thermo Fisher) ascorbic acid (Sigma-Aldrich) and penicillin/streptomycin (Sigma-Aldrich). Moreover, ITS+ premix (Corning) was replaced by ITS (GIBCO, 1:500 dilution) in order to achieve a more physiological relevant concentration of insulin, while the FBS supplement was removed. Treatment. […] The Liver-Chip was maintained for 48h in treatment medium and either assayed or allowed to recover for 5 days in basal medium. Optimization of Liver-Chip ECM for BC integrity. We iteratively modified the original ECM coating protocol^74 in order to improve BC formation. Five different combinations of ECM composition and deposition strategy were tested (FIG. 82B), where ECM-A denoted the original protocol. Briefly, for ECM-A, top and bottom channels were coated by incubating with 100 μg/mL rat tail collagen-I (Corning) and 25 μ/mL fibronectin (Gibco) overnight at 37° C. […]

[5] = system: primary human hepatocytes; details: 0.08% and 0.16% pooled vs vehicle
[6] = system: primary human hepatocytes; experiment: Lipid droplet accumulation (AdipoRed) in ALD Liver-Chip; details: ethanol 0.08% or 0.16%, oleic acid 1 μg/ml, up to 48 hrs
[7] = system: lung cells; experiment: Viability/differentiation biomarker scoring of airway chip culture conditions; format: cell-based; details: airway S1 chip culture
From the text: In one embodiment, the present invention contemplates a method comprising scoring at least one cell biomarker and determining a viable and differentiated cell. For example, specific quantitative scores have been assigned to a set of cell biomarkers for viability and differentiation during chip cell culture maturation includes, but is not limited to, cell death (1), ciliation (2) cell attachment (3) cell movement/shape (4), cell overgrowth (5), cell invasion (6). See, FIG. 14.
As depicted, the score value increases as the viability/differentiation relevance of the cell biomarker decreases. In one embodiment, the cell death biomarker score value increases in proportion to increased cell death. In one embodiment, the ciliation biomarker score value increases in proportion to deceased ciliation. In one embodiment, the cell attachment biomarker score value increases in proportion to decreased cell attachment. In one embodiment, the cell movement/shape biomarker score value increases with decreased cell movement/shape. In one embodiment, the cell overgrowth biomarker score value increases with increased cell overgrowth. […]
Each coating can be seen to result in different score values that are independent of location in the cell culture device (e.g., Zoe). […] It is known that retinoic acid (RA) is readily absorbed by most microchip substrates. […]

[8] = system: mucociliary bronchiolar epithelium (hAECs); experiment: Effect of IL-13 on goblet cells and cilia beating frequency in Airway Chip; format: cell-based, human; details: IL-13 100 ng/mL, 7 days
Procedure: Cilia beating frequency (CBF) was measured by applying Fourier spectral analysis to high-speed video recordings of the ciliated surfaces. Using an inverted phase contrast microscope, the ciliated surfaces were recorded at 190-200 frames per second and at a resolution of 512 by 512 pixels, which corresponded to a field of view of 166 by 166 μm^2 (0.32 μm per pixel). Cilia beating was recorded at multiple randomly chosen fields of view (FOV) for each chip.
A first step of video processing was to identify regions of ciliary beating by computing a normalized standard deviation of an intensity value for each pixel across all frames. […] FIG. 104A-B.
In a further step, areas with ciliary motion were thresholded and the movie field of view was divided into 289 windows (ca. 10×10 μm^2 in size). For each window, a random set comprising 70% of all pixels with detected motion was further analyzed to detect the dominant beat frequency. For each sampled pixel, ciliary beat frequency was determined from a time-dependent fluctuation of pixel brightness reflecting the periodicities of the ciliary movement. A bandwidth filter (e.g., approximately 1 to 30 Hz) was applied to each pixel signal to remove noise. […] Thus, for each FOV, the number of measured CBFs was determined by the number of windows with usable signals (e.g., 289 windows). […]

CC[C@@H](Nc1c(Nc2cccc(C(=O)N(C)C)c2O)c(=O)c1=O)c1ccc(C)o1 [MK-7123, reference compound]
reduction of neutrophil adhesion ([1]; stated as embodiment, MK-7123 10 μM in FIG. 95): ~75%

CCO [ethanol]
ROS events per nuclei [2]: dose-dependent increase in ROS events
dilated BC (cholestatic) areas [3]: areas of markedly dilated BCs
glycogen storage in cell lysates ([4]; 0.08% ethanol): trend for increase
albumin release [4]: not affected
cholesterol levels ([4]; human-relevant BACs, effluent and cell lysates): significant increase in cholesterol levels
glucose release ([4]; except toxic concentrations above 0.32%): no changes were detected
downregulated DE genes [5]: 36
upregulated DE genes [5]: 87
differentially expressed (DE) genes ([5]; adj. p<0.05, |log2FC|>1): 123
steatosis (hepatic lipid accumulation) [6]: steatosis was induced

CCCCCCCC/C=C\CCCCCCCC(=O)O [oleic acid, reference compound]
steatosis (hepatic lipid accumulation) [6]: steatosis was induced

Bovine Serum Albumin (BSA): membrane coating layer of bovine serum albumin
cell viability and differentiation (scoring / morphological assessment) [7]: found to support the most viable and differentiated cells

IL-13: Th2 cytokine IL-13
reduction in cilia beating frequency [8]: 14.4%
goblet cells, total area ([8]; 16.5% without IL-13): 50.3%
neutrophil recruited ([1]; HRV infected chips in presence of IL-13, 953 in HRV infected chips alone): 1999
